Measured values taken from patent US12600709B2, “Nonpeptide somatostatin type 5 receptor agonists and uses thereof” (Crinetics Pharmaceuticals, Inc., priority 2019, dated 2026).
pEC50: −log10 of the molar value. Like-named read-outs stand apart in the source and are kept apart here.

Columns and labels:
[1] = biological target: T1, human somatostatin receptor subtype 5 (Homo sapiens, UniProt P35346); assay: cAMP assay for SST5R (inhibition of cAMP in CHO-K1 cells); type: cell-based; details: for pEC50: inhibition of cAMP via human SST5 receptor, read-out: SST5 potency; for Fold selectivity for SST5 vs SST2: class symbols, SST5 receptor over SST2 receptor
T1 construct: expressed in transfected cells
T1 sequence (P35346 whole entry): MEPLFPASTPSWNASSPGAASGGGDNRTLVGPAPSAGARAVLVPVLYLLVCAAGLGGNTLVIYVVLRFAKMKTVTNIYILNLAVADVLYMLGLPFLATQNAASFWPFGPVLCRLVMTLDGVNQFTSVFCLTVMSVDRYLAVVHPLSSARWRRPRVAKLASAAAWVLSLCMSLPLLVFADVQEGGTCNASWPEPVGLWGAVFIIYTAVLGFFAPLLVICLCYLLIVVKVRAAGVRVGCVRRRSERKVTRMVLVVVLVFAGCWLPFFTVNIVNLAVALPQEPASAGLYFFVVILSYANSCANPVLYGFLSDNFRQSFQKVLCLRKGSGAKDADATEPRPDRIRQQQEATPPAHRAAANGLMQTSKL
Method in brief: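 CHO-K1 cells stably expressing human SSTR5 were treated 20 min at 37 °C with compounds plus 1.6 μM NKH477 in HBSS, 0.5 mM HEPES pH 7.4, 0.1% BSA, 0.2 mM IBMX. Lysate cAMP measured by HTRF against a standard curve; EC50 from cAMP-versus-concentration plots.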

[2] = biological target: T2, human somatostatin receptor subtype 2 (Homo sapiens, UniProt P30874); assay: cAMP assay for SST2R (inhibition of cAMP in CHO-K1 cells); type: cell-based; details: Table B; inhibition of cAMP via human SST2 receptor; read-out: SST2 potency
T2 construct: expressed in transfected cells
T2 sequence (P30874 whole entry): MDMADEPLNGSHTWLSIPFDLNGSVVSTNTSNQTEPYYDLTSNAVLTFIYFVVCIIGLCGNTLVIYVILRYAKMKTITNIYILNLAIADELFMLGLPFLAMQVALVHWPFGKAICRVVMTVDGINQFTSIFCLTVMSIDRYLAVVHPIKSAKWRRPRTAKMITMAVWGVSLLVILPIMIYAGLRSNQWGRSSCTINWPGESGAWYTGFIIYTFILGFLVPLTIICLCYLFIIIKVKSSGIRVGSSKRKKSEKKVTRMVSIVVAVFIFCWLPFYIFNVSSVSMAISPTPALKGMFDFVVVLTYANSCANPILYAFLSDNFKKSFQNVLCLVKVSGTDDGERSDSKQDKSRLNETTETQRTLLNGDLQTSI
Method in brief: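 CHO-K1 cells stably expressing human SSTR2, plated 4 days prior, treated 20 min at 37° C with 1.6 μM NKH477 plus compound dilutions in HBSS/HEPES pH 7.4/0.1% BSA/0.2 mM IBMX. Lysate cAMP measured by HTRF against standard curve; EC50 from concentration-response.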

Compound | pEC50 ([1]; Table A) | Fold selectivity for SST5 vs SST2 ([1]; Table B) | pEC50 ([1]; Table B) | pEC50 [2]
CC1(C)CC(NC(=O)c2cnc(C#N)c(-c3cc(F)cc(F)c3)c2N2CC[C@](C)(N)C2)CCO1 (stereo partly drawn) [1-113, 4-[(3S)-3-amino-3-methylpyrrolidin-1-yl]-6-cyano-5-(3,5-difluorophenyl)-N-(2,2-dimethyloxan-4-yl)pyridine-3-carboxamide] | > 8.00 | +++ (+++=>500) | > 8.00 | < 6.00
C[C@H](NC(=O)c1cnc(C#N)c(-c2cc(F)cc(F)c2)c1N1CC[C@](C)(N)C1)C(F)(F)F [1-192, 4-[(3S)-3-amino-3-methylpyrrolidin-1-yl]-6-cyano-5-(3,5-difluorophenyl)-N-[(2S)-1,1,1-trifluoropropan-2-yl]pyridine-3-carboxamide] | > 8.00 | ++ (++=100 to 499) | > 8.00 | 7.00 to 8.00
C[C@]1(N)CCN(c2c(C(=O)NC3CCC(F)(F)CC3)cnc(C#N)c2-c2cc(F)cc(F)c2)C1 [1-48, 4-[(3S)-3-amino-3-methylpyrrolidin-1-yl]-6-cyano-N-(4,4-difluorocyclohexyl)-5-(3,5-difluorophenyl)pyridine-3-carboxamide] | > 8.00 | +++ (+++=>500) | > 8.00 | 6.00 to 7.00
COc1cc(C#N)cc(-c2c(C(F)(F)F)ncc(C(=O)N[C@@H](C)C3CC3)c2N2CC[C@](C)(N)C2)c1 [1-197, 4-[(3S)-3-amino-3-methylpyrrolidin-1-yl]-5-(3-cyano-5-methoxyphenyl)-N-[(1S)-1-cyclopropylethyl]-6-(trifluoromethyl)pyridine-3-carboxamide] | > 8.00 | +++ (+++=>500) | > 8.00 | 6.00 to 7.00
C[C@H](NC(=O)c1cncc(-c2cc(F)cc(F)c2)c1N1CC[C@](C)(N)C1)C(F)(F)F [1-54, 4-[(3S)-3-amino-3-methylpyrrolidin-1-yl]-5-(3,5-difluorophenyl)-N-[(2S)-1,1,1-trifluoropropan-2-yl]pyridine-3-carboxamide] | > 8.00 | ++ (++=100 to 499) | > 8.00 | 6.00 to 7.00
Cc1ncc(-c2c(C#N)ncc(C(=O)N[C@@H](C)C3CC3)c2N2CC[C@](C)(N)C2)s1 [1-128, 4-[(3S)-3-amino-3-methylpyrrolidin-1-yl]-6-cyano-N-[(1S)-1-cyclopropylethyl]-5-(2-methyl-1,3-thiazol-5-yl)pyridine-3-carboxamide] | > 8.00 | +++ (+++=>500) | > 8.00 | 6.00 to 7.00
C[C@]1(N)CCN(c2c(C(=O)NC3CCCCC3)cnc(C#N)c2-c2cc(F)cc(F)c2)C1 [1-93, 4-[(3S)-3-amino-3-methylpyrrolidin-1-yl]-6-cyano-N-cyclohexyl-5-(3,5-difluorophenyl)pyridine-3-carboxamide] | > 8.00 | +++ (+++=>500) | > 8.00 | 7.00 to 8.00
N#Cc1ncc(C(=O)NC23CC(C2)C3)c(N2CC[C@H](N)C2)c1-c1cc(F)cc(F)c1 [1-64, 4-[(3S)-3-aminopyrrolidin-1-yl]-N-{bicyclo[1.1.1]pentan-1-yl}-6-cyano-5-(3,5-difluorophenyl)pyridine-3-carboxamide] | > 8.00 | +++ (+++=>500) | > 8.00 | < 6.00
4-[(3S)-3-amino-3-methylpyrrolidin-1-yl]-5-(3-cyano-5-methoxyphenyl)-N-[(1S)-1-cyclopropylethyl]-6-methylpyridine-3-carboxamide [1-280] | > 8.00 | +++ (+++=>500) | > 8.00 | 6.00 to 7.00
Cc1cc(C)cc(-c2cncc(C(=O)Nc3cc(F)cc(Cl)c3)c2N2CC[C@H](N)C2)c1 [1-3, 4-[(3 S)-3-aminopyrrolidin-1-yl]-N-(3-chloro-5-fluorophenyl)-5-(3,5-dimethylphenyl)pyridine-3-carboxamide] | > 8.00 | + (+=10 to 99) | > 8.00 | 6.00 to 7.00

Results, then the compound that gave them:

pEC50 ([1]; Table A) | Fold selectivity for SST5 vs SST2 ([1]; Table B) | pEC50 ([1]; Table B) | pEC50 [2] | Compound
> 8.00 | +++ (+++=>500) | > 8.00 | < 6.00 | COc1ncc(C(=O)NCc2ccon2)c(N2CC[C@](C)(N)C2)c1-c1cc(F)cc(OC(F)F)c1 [1-239, 4-[(3S)-3-amino-3-methylpyrrolidin-1-yl]-5-[3-(difluoromethoxy)-5-fluorophenyl]-6-methoxy-N-[(1,2-oxazol-3-yl)methyl]pyridine-3-carboxamide]
> 8.00 | +++ (+++=>500) | > 8.00 | < 6.00 | Cc1ncc(C(=O)NCc2ccon2)c(N2CC[C@](C)(N)C2)c1-c1cc(F)cc(Cl)c1 [1-242, 4-[(3S)-3-amino-3-methylpyrrolidin-1-yl]-5-(3-chloro-5-fluorophenyl)-6-methyl-N-[(1,2-oxazol-3-yl)methyl]pyridine-3-carboxamide]
> 8.00 | + (+=10 to 99) | > 8.00 | 7.00 to 8.00 | Cc1cccc2[nH]c(-c3cncc(C(=O)N(C)[C@@H](C)C4CC4)c3N3CC[C@](C)(N)C3)nc12 [2-29, 4-[(3S)-3-amino-3-methylpyrrolidin-1-yl]-N-[(1S)-1-cyclopropylethyl]-N-methyl-5-(4-methyl-1H-1,3-benzodiazol-2-yl)pyridine-3-carboxamide]
> 8.00 | +++ (+++=>500) | > 8.00 | 6.00 to 7.00 | COc1cc(-c2c(C(F)(F)F)ncc(C(=O)N[C@@H](C)C3CC3)c2N2CC[C@](C)(N)C2)ccn1 [1-208, 4-[(3S)-3-amino-3-methylpyrrolidin-1-yl]-N-[(1S)-1-cyclopropylethyl]-2′-methoxy-2-(trifluoromethyl)-[3,4′-bipyridine]-5-carboxamide]
> 8.00 | +++ (+++=>500) | > 8.00 | 6.00 to 7.00 | COc1ncc(C(=O)N[C@@H](C)c2ccccn2)c(N2CC[C@](C)(N)C2)c1-c1cc(F)cc(Cl)c1 [1-240, 4-[(3S)-3-amino-3-methylpyrrolidin-1-yl]-5-(3-chloro-5-fluorophenyl)-6-methoxy-N-[(1S)-1-(pyridin-2-yl)ethyl]pyridine-3-carboxamide]
> 8.00 | +++ (+++=>500) | > 8.00 | 6.00 to 7.00 | COc1ncc(C(=O)N[C@@H](C)C(F)(F)F)c(N2CC[C@](C)(N)C2)c1-c1ccc(Cl)c(F)c1 [1-260, 4-[(3S)-3-amino-3-methylpyrrolidin-1-yl]-5-(4-chloro-3-fluorophenyl)-6-methoxy-N-[(2S)-1,1,1-trifluoropropan-2-yl]pyridine-3-carboxamide]
> 8.00 | +++ (+++=>500) | > 8.00 | 6.00 to 7.00 | Cc1cccc2[nH]c(-c3cncc(C(=O)N4CCCC4C(C)C)c3N3CC[C@](C)(N)C3)nc12 (stereo partly drawn) [2-36, (3S)-3-methyl-1-[3-(4-methyl-1H-1,3-benzodiazol-2-yl)-5-[2-(propan-2-yl)pyrrolidine-1-carbonyl]pyridin-4-yl]pyrrolidin-3-amine]
> 8.00 | +++ (+++=>500) | > 8.00 | < 6.00 | COc1cc(-c2c(C#N)ncc(C(=O)NCC(C)C)c2N2CC[C@](C)(N)C2)ccn1 [1-270, 4-[(3S)-3-amino-3-methylpyrrolidin-1-yl]-2-cyano-2′-methoxy-N-(2-methylpropyl)-[3,4′-bipyridine]-5-carboxamide]
> 8.00 | + (+=10 to 99) | > 8.00 | 6.00 to 7.00 | Cc1cccc2[nH]c(-c3cncc(C(=O)N4CCC[C@H]4C(F)(F)F)c3N3CC[C@](C)(N)C3)nc12 [2-41, (3S)-3-methyl-1-[3-(4-methyl-1H-1,3-benzodiazol-2-yl)-5-[(2S)-2-(trifluoromethyl)pyrrolidine-1-carbonyl]pyridin-4-yl]pyrrolidin-3-amine]
> 8.00 | +++ (+++=>500) | > 8.00 | 6.00 to 7.00 | COc1ncc(C(=O)NC23CC(F)(C2)C3)c(N2CC[C@](C)(N)C2)c1-c1cc(F)cc(F)c1 [1-273, 4-[(3S)-3-amino-3-methylpyrrolidin-1-yl]-5-(3,5-difluorophenyl)-N-{3-fluorobicyclo[1.1.1]pentan-1-yl}-6-methoxypyridine-3-carboxamide]
> 8.00 | +++ (+++=>500) | > 8.00 | 7.00 to 8.00 | Cc1ncc(C(=O)N[C@@H](C)C(F)(F)F)c(N2CC[C@](C)(N)C2)c1-c1ccc(F)c(Cl)c1 [1-287, 4-[(3S)-3-amino-3-methylpyrrolidin-1-yl]-5-(3-chloro-4-fluorophenyl)-6-methyl-N-[(2S)-1,1,1-trifluoropropan-2-yl]pyridine-3-carboxamide]
> 8.00 | +++ (+++=>500) | > 8.00 | < 6.00 | CCCCNC(=O)c1cnc(C#N)c(-c2ccnc(C(F)(F)F)c2)c1N1CC[C@](C)(N)C1 [1-251, 4-[(3S)-3-amino-3-methylpyrrolidin-1-yl]-N-butyl-2-cyano-2′-(trifluoromethyl)-[3,4′-bipyridine]-5-carboxamide]
